From PMC9586930, “Molecular insights into the distinct signaling duration for the peptide-induced PTH1R activation” (Nature Communications, 2022)
Non-standard residues stand in square brackets, D forms with d. Residues, ends and D or L forms follow the SMILES beside them. No end group written: not given here. Aib = CC(C)(N)C(=O)O

Biological target: T1, WT PTH1R (Homo sapiens, UniProt Q03431)
T1 construct: a flag-tag was fused to the N terminal of full-length PTH1R (WT or mutant); expressed in transfected cells; host or cells: HEK293T
T1 sequence (Q03431 27-593): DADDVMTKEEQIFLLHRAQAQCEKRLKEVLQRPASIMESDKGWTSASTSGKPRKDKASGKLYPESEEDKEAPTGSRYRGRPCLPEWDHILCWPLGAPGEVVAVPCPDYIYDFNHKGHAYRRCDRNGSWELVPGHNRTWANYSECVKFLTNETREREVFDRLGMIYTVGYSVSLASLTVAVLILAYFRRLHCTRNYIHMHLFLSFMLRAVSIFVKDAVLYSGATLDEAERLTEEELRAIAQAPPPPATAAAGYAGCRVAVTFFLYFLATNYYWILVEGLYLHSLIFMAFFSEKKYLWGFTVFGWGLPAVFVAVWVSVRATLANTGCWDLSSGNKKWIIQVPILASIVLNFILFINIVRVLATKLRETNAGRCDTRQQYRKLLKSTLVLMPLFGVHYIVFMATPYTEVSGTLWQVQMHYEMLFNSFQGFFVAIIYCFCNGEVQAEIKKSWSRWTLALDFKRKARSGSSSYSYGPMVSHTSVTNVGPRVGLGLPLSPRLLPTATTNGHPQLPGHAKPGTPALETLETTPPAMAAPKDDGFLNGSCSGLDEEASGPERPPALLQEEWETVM
Assay: cAMP accumulation assay (GloSensor), wild-type PTH1R
Format: cell-based
Conditions: HEK293T cells; for Emax: from curve fitting dose-response data; for EC50: half-maximal stimulatory concentration from curve fitting dose-response data
Procedure: Human embryonic kidney 293 T (HEK293T, ATCC: CRL-1573) cells were transfected with a plasmid mixture consisting of pcDNA3.1-flag-PTH1R (WT or mutants) and the cAMP biosensor GloSensor-22F (Promega) at a ratio of 2:1 (see Supplementary Table 7 for a list of primers used in this study). After 24 h, transfected cells were plated onto a 384-well plate, which was treated with cell adherent reagent (Applygen) in advance. After another 12 h, cells were treated with Hank’s balanced salt solution for starvation and then incubated in CO2-independent media containing 4% GloSensor cAMP Reagent (Promega) at a volume of 5 μl per well and incubated for 20 min at RT before measurements for baseline luminescence (Spark Multimode microplate reader, TECAN). Next, test ligands were added at different concentrations from 10^−6 to 10^−13 M before second measurement. Finally, data were normalized to 100% of the maximal PTH (1-34) response for WT PTH1R using a sigmoidal dose-response in GraphPad Prism.
Statistical analyses were performed on at least three individual datasets and analysed using GraphPad Prism software. Bars represent differences in the calculated agonist potency (pEC50) and maximum agonist response (Emax) for each mutant relative to the WT receptor. Data are mean± s.e.m. from at least three independent experiments, performed in triplicates. ns, not significant, ^nsP > 0.01; ^*P < 0.01; ^**P < 0.001; ^***P < 0.0001 (one-way analysis of variance (ANOVA) followed by Dunnett’s test, compared with the response of the WT). For dose-response experiments, data were normalized and analyzed using nonlinear curve fitting for the log (agonist) versus response (three parameters) curves.

Molecule	Emax	EC50 [nM]
CSCC[C@H](NC(=O)[C@H](CC(C)C)NC(=O)[C@H](CCC(N)=O)NC(=O)[C@H](Cc1c[nH]cn1)NC(=O)[C@H](CCC(=O)O)NC(=O)[C@H](CO)NC(=O)[C@@H](NC(=O)[C@@H](N)CO)C(C)C)C(=O)N[C@@H](Cc1c[nH]cn1)C(=O)N[C@@H](CC(N)=O)C(=O)N[C@@H](CC(C)C)C(=O)NCC(=O)N[C@@H](CCCCN)C(=O)N[C@@H](Cc1c[nH]cn1)C(=O)N[C@@H](CC(C)C)C(=O)N[C@@H](CC(N)=O)C(=O)N[C@@H](CO)C(=O)N[C@@H](CCSC)C(=O)N[C@@H](CCC(=O)O)C(=O)N[C@@H](CCCNC(=N)N)C(=O)N[C@H](C(=O)N[C@@H](CCC(=O)O)C(=O)N[C@@H](Cc1c[nH]c2ccccc12)C(=O)N[C@@H](CC(C)C)C(=O)N[C@@H](CCCNC(=N)N)C(=O)N[C@@H](CCCCN)C(=O)N[C@@H](CCCCN)C(=O)N[C@@H](CC(C)C)C(=O)N[C@@H](CCC(N)=O)C(=O)N[C@@H](CC(=O)O)C(=O)N[C@H](C(=O)N[C@@H](Cc1c[nH]cn1)C(=O)N[C@@H](CC(N)=O)C(=O)N[C@@H](Cc1ccccc1)C(=O)O)C(C)C)C(C)C [PTH(I5H)]		23.6
AVAEHQLMHQLAKWIQDARRRAFLHKLIAEIHTAEI [LAPTH(I5H;R11L)]	106.9 luminescence counts per 500ms	2.08
AVAEHQLMHQRAKWIQDLRRRFFLHHLIAEIHTAEI-NH2 [LAPTH(1-14,I5H)/PTHrP(15-34)]	142.8 luminescence counts per 500ms	1.76
AVAEHQLMHQRGKWIQDARRRAFLHKLIAEIHTAEI [LAPTH(I5H;A12G)]	129.5 luminescence counts per 500ms	2.08
AVAEIQLLHQRAKWIQDARRRAFLHKLIAEIHTAEI [LAPTH(M8L)]		3.45
AVAEIQLLMHQRAKSIQDARRRAFLHKLIAEIHTAEI [LAPTH(W14H)]	107.5 luminescence counts per 500ms	
SVAEHQLMHQRAKWIQDARRRAFLHKLIAEIHTAEI [LAPTH(I5H;A1S)]	119.8 luminescence counts per 500ms	1.84
SVSEHQLMHNLGKHIQDARRRAFLHKLIAEIHTAEI [LA-PTH (I5H-PTH;NT)]	102.1 luminescence counts per 500ms	1.98

More lines, in order of falling EC50, values ahead:

Emax	EC50 [nM]	Molecule
117.7 luminescence counts per 500ms	1.4	AVAEHQLMHNRAKWIQDARRRAFLHKLIAEIHTAEI [LAPTH(I5H;Q10N)]
129.6 luminescence counts per 500ms	0.643	AVAEHQLMHQRAKWLNSMERVEWLRKKLQDVHNF [LAPTH(1-14,I5H)/PTH(15-34)]
117.8 luminescence counts per 500ms	0.493	AVAEHQLMHQRAKHIQDARRRAFLHKLIAEIHTAEI [LAPTH(I5H;W14H)]
125.3 luminescence counts per 500ms	0.39	AVSEHQLMHQRAKWIQDARRRAFLHKLIAEIHTAEI [LAPTH(I5H;A3S)]
104.1 luminescence counts per 500ms	0.32	CC[C@H](C)[C@H](NC(=O)[C@H](CO)NC(=O)[C@H](CCCCN)NC(=O)CNC(=O)[C@H](CCCCN)NC(=O)[C@H](CC(=O)O)NC(=O)[C@H](Cc1c[nH]cn1)NC(=O)[C@H](CC(C)C)NC(=O)[C@H](CC(C)C)NC(=O)[C@H](CCC(N)=O)NC(=O)[C@@H](NC(=O)[C@H](CCC(=O)O)NC(=O)[C@H](CO)NC(=O)[C@@H](NC(=O)[C@H](C)N)C(C)C)[C@@H](C)CC)C(=O)N[C@@H](CCC(N)=O)C(=O)N[C@@H](CC(=O)O)C(=O)N[C@@H](CC(C)C)C(=O)N[C@@H](CCCNC(=N)N)C(=O)N[C@@H](CCCNC(=N)N)C(=O)N[C@@H](CCCNC(=N)N)C(=O)N[C@@H](CCC(=O)O)C(=O)N[C@@H](CC(C)C)C(=O)N[C@@H](CC(C)C)C(=O)N[C@@H](CCC(=O)O)C(=O)N[C@@H](CCCCN)C(=O)N[C@@H](CC(C)C)C(=O)N[C@@H](CC(C)C)C(=O)NC(C)(C)C(=O)N[C@@H](CCCCN)C(=O)N[C@@H](CC(C)C)C(=O)N[C@@H](Cc1c[nH]cn1)C(=O)N[C@H](C(=O)N[C@@H](C)C(N)=O)[C@@H](C)O [ABL(H5I)] (H-AVSEIQLLHDKGKSIQDLRRRELLEKLL[Aib]KLHTA-NH2)
	0.183	AVAEHQLMHQRAKWIQDARRRAFLHKLIAEIHTAEI [LAPTH(I5H)]
